{
  "source": "patent US4578390A",
  "about": "“Hydroxybenzylamino derivatives as anti-inflammatory agents” (Merck & Co., Inc., priority 1983, dated 1986)",
  "key": {"[1]": {"system": "inflammatory responses elicited by topically applied phorbol myristate acetate (PMA) or topically applied arachidonic acid (AA)", "test": "Topical mouse ear assay (TME), edema", "format": "in vivo", "details": "PMA or AA challenge (which not stated), N=5 mice/group", "method": "TABLE II Topical Mouse Ear Assay\nMethod: The right ears of mice (5 mice per group) were treated topically with either […] or 1000 μg AA alone or with the test compound in 25 μl of vehicle. The vehicle was water/pyridine/acetone (1:2:97). A control group of mice received the vehicle only. The mice were allowed food and water ad libitum during the treatment period; 2 hours for AA and 4 hours for PMA. The mice were sacrificed by cervical dislocation and a 6 mm diameter disc of tissue punched from both the treated and untreated ears. The tissue biopsies were immediately weighed and the weight increase of the treated ear relative to the weight of the untreated ear determined.\nAll of the data are expressed as the mean±SEM, N=5 mice/group."}, "[2]": {"system": "inflammatory responses elicited by topically applied phorbol myristate acetate (PMA) or topically applied arachidonic acid (AA)", "details": "previously established; cited from earlier work"}, "[3]": {"system": "erythema induced on the skin of guinea pigs by UV radiation", "test": "U.V. erythema assay", "format": "in vivo", "details": "topical, mean of 3 animals", "method": "The U.V. erythema assay by which topical anti-inflammatory activity is determined, is based on the ability of the compounds of Formula I to inhibit the erythema induced on the skin of guinea pigs by UV radiation. It has been substantiated by recent studies that prostaglandin synthesis and the release thereof may be the primary process involved in the production of erythema. A protocol of the assay and some results thereof are summarized below in Table III.\nGuinea pigs were depilated and stabilized for 30 minutes. Following anesthesia with Nembutal (35 mg/kg), they were exposed to a U.V. lamp for 45 minutes at a distance of seven inches from the abdominal surface. Compound was applied topically (seven applications in a total of 0.1 ml vehicle) 15 minutes post exposure. […]\nVehicle 1774--85% EtOH, 12% Propylene Glycol, 3% Methyl Salicylate\nA numerical value 0-5 was assigned to the degree of erythema observed under standard lighting conditions. Drug effect on the developing erythema was calculated as follows: [formula] Results: % Inhibition of Erythema by (a) N-(2-hydroxy-5-methoxybenzyl)aniline"}},
  "data": [
    {"molecule": "COc1ccc(O)c(CNc2cccs2)c1", "note": "[A, 2-(2-hydroxy-5-methoxybenzylamino)thiophene]", "values": [
      {"measurement": "Edema (% inhibition)", "setting": "[1]; dosage 300 μg", "value": 77, "unit": "%"}
    ]},
    {"molecule": "COc1ccc(O)c(CNc2cccc3nsnc23)c1", "note": "[B, 4-(2-hydroxy-5-methoxybenzylamino)-2,1,3-benzothiadiazole]", "values": [
      {"measurement": "Edema (% inhibition)", "setting": "[1]; dosage 300 μg", "value": 44, "unit": "%"}
    ]},
    {"molecule": "COc1ccc(O)c(CNc2nc3ccccc3[nH]2)c1", "note": "[C, 2-(2-hydroxy-5-methoxybenzylamino)benzimidazole]", "values": [
      {"measurement": "Edema (% inhibition)", "setting": "[1]; dosage 300 μg", "value": 80, "unit": "%"}
    ]},
    {"molecule": "C[C@@H]1C[C@H]2[C@@H]3CCC4=CC(=O)C=C[C@]4(C)[C@@]3(F)[C@@H](O)C[C@]2(C)[C@@]1(O)C(=O)CO", "note": "[Dexamethasone, reference compound]", "values": [
      {"measurement": "Edema (% inhibition)", "setting": "[1]; dosage 150 μg", "value": 100, "unit": "%"},
      {"measurement": "activity in the topical mouse ear assay", "setting": "[2]", "value": "active"}
    ]},
    {"molecule": "COc1ccc2c(c1)c(CC(=O)O)c(C)n2C(=O)c1ccc(Cl)cc1", "note": "[Indomethacin, reference compound]", "values": [
      {"measurement": "Edema (% inhibition)", "setting": "[1]; dosage 1000 μg", "value": 88, "unit": "%"},
      {"measurement": "activity in the topical mouse ear assay", "setting": "[2]", "value": "active"}
    ]},
    {"molecule": "COc1ccc(O)c(CNc2ccccc2)c1", "note": "[N-(2-hydroxy-5-methoxybenzyl)aniline]", "values": [
      {"measurement": "% Inhibition of Erythema, 2 Hr.", "setting": "[3]; 0.1 mg", "value": 19.3, "unit": "%"},
      {"measurement": "% Inhibition of Erythema, 3 Hr.", "setting": "[3]; 0.1 mg", "value": 16.7, "unit": "%"},
      {"measurement": "% Inhibition of Erythema, 4 Hr.", "setting": "[3]; 0.1 mg", "value": 15.0, "unit": "%"},
      {"measurement": "% Inhibition of Erythema, 6 Hr.", "setting": "[3]; 0.1 mg", "value": 6.7, "unit": "%"},
      {"measurement": "% Inhibition of Erythema, 24 Hr.", "setting": "[3]; 0.1 mg", "value": 0, "unit": "%"},
      {"measurement": "% Inhibition of Erythema, 2 Hr.", "setting": "[3]; 0.3 mg", "value": 55.3, "unit": "%"},
      {"measurement": "% Inhibition of Erythema, 3 Hr.", "setting": "[3]; 0.3 mg", "value": 50.0, "unit": "%"},
      {"measurement": "% Inhibition of Erythema, 4 Hr.", "setting": "[3]; 0.3 mg", "value": 46.7, "unit": "%"},
      {"measurement": "% Inhibition of Erythema, 6 Hr.", "setting": "[3]; 0.3 mg", "value": 35.0, "unit": "%"},
      {"measurement": "% Inhibition of Erythema, 24 Hr.", "setting": "[3]; 0.3 mg", "value": 0, "unit": "%"},
      {"measurement": "% Inhibition of Erythema, 2 Hr.", "setting": "[3]; 1.0 mg", "value": 80.3, "unit": "%"},
      {"measurement": "% Inhibition of Erythema, 3 Hr.", "setting": "[3]; 1.0 mg", "value": 91.7, "unit": "%"},
      {"measurement": "% Inhibition of Erythema, 4 Hr.", "setting": "[3]; 1.0 mg", "value": 76.7, "unit": "%"},
      {"measurement": "% Inhibition of Erythema, 6 Hr.", "setting": "[3]; 1.0 mg", "value": 63.3, "unit": "%"},
      {"measurement": "% Inhibition of Erythema, 24 Hr.", "setting": "[3]; 1.0 mg", "value": 26.7, "unit": "%"},
      {"measurement": "% Inhibition of Erythema, 2 Hr.", "setting": "[3]; 3.0 mg", "value": 100, "unit": "%"},
      {"measurement": "% Inhibition of Erythema, 3 Hr.", "setting": "[3]; 3.0 mg", "value": 100, "unit": "%"},
      {"measurement": "% Inhibition of Erythema, 4 Hr.", "setting": "[3]; 3.0 mg", "value": 63.3, "unit": "%"},
      {"measurement": "% Inhibition of Erythema, 6 Hr.", "setting": "[3]; 3.0 mg", "value": 43.3, "unit": "%"},
      {"measurement": "% Inhibition of Erythema, 24 Hr.", "setting": "[3]; 3.0 mg", "value": 33.3, "unit": "%"}
    ]}
  ]
}
